Source: the supplement of paper PMC10307832

Experiments:
Assay in all cases: relative viability (nuclei count vs DMSO), 5 days (fraction); higher = more cells survive
ABC-1 = tested on: ABC-1
How it was run: (§1)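 Five library-drug doses in √10 steps were combined with a fixed anchor-drug dose, or a single drug was given alone, by pin tool to lung cancer cell lines in 1536-well plates the day after seeding. Nuclei were stained and counted after 5 days. Relative viability is the nuclei count in treated wells over that in vehicle wells, taken as the median of duplicate plates.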

CAL-12T = tested on: CAL-12T
How it was run: as §1

COR-L 105 = tested on: COR-L 105
How it was run: as §1

ChaGo-K-1 = tested on: ChaGo-K-1
How it was run: as §1

EMC-BAC-2 = tested on: EMC-BAC-2
How it was run: as §1

EPLC-272H = tested on: EPLC-272H
How it was run: as §1

HCC-15 = tested on: HCC-15
How it was run: as §1

HCC-78 = tested on: HCC-78
How it was run: as §1

HOP-62 = tested on: HOP-62
How it was run: as §1

LXF-289 = tested on: LXF-289
How it was run: as §1

NCI-H1666 = tested on: NCI-H1666
How it was run: as §1

NCI-H1755 = tested on: NCI-H1755
How it was run: as §1

## NC(=O)Nc1cc(-c2cccc(F)c2)sc1C(=O)N[C@H]1CCCNC1 [AZD7762] + N=C(N)NC(=N)NCCc1ccccc1 [Phenformin] (partner 250 µM)
ABC-1; first compound 0.01 µM
  relative viability: 0.273
ABC-1; first compound 0.03162 µM
  relative viability: 0.249
ABC-1; first compound 0.1 µM
  relative viability: 0.268
ABC-1; first compound 0.3162 µM
  relative viability: 0.203
ABC-1; first compound 1 µM
  relative viability: 0.19
CAL-12T; first compound 0.01 µM
  relative viability: 0.605
CAL-12T; first compound 0.03162 µM
  relative viability: 0.559
CAL-12T; first compound 0.1 µM
  relative viability: 0.571
CAL-12T; first compound 0.3162 µM
  relative viability: 0.321
CAL-12T; first compound 1 µM
  relative viability: 0.114
COR-L 105; first compound 0.01 µM
  relative viability: 0.5
COR-L 105; first compound 0.03162 µM
  relative viability: 0.491
COR-L 105; first compound 0.1 µM
  relative viability: 0.477
COR-L 105; first compound 0.3162 µM
  relative viability: 0.429
COR-L 105; first compound 1 µM
  relative viability: 0.254
ChaGo-K-1; first compound 0.01 µM
  relative viability: 0.517
ChaGo-K-1; first compound 0.03162 µM
  relative viability: 0.513
ChaGo-K-1; first compound 0.1 µM
  relative viability: 0.479
ChaGo-K-1; first compound 0.3162 µM
  relative viability: 0.468
ChaGo-K-1; first compound 1 µM
  relative viability: 0.496
EMC-BAC-2; first compound 0.01 µM
  relative viability: 0.52
EMC-BAC-2; first compound 0.03162 µM
  relative viability: 0.581
EMC-BAC-2; first compound 0.1 µM
  relative viability: 0.542
EMC-BAC-2; first compound 0.3162 µM
  relative viability: 0.448
EMC-BAC-2; first compound 1 µM
  relative viability: 0.474
EPLC-272H; first compound 0.01 µM
  relative viability: 0.325
EPLC-272H; first compound 0.03162 µM
  relative viability: 0.359
EPLC-272H; first compound 0.1 µM
  relative viability: 0.278
EPLC-272H; first compound 0.3162 µM
  relative viability: 0.261
EPLC-272H; first compound 1 µM
  relative viability: 0.164
HCC-15; first compound 0.01 µM
  relative viability: 0.483
HCC-15; first compound 0.03162 µM
  relative viability: 0.475
HCC-15; first compound 0.1 µM
  relative viability: 0.432
HCC-15; first compound 0.3162 µM
  relative viability: 0.473
HCC-15; first compound 1 µM
  relative viability: 0.445
HCC-78; first compound 0.01 µM
  relative viability: 0.737
HCC-78; first compound 0.03162 µM
  relative viability: 1.12
HCC-78; first compound 0.1 µM
  relative viability: 0.766
HCC-78; first compound 0.3162 µM
  relative viability: 0.718
HCC-78; first compound 1 µM
  relative viability: 0.604
HOP-62; first compound 0.01 µM
  relative viability: 0.748
HOP-62; first compound 0.03162 µM
  relative viability: 0.665
HOP-62; first compound 0.1 µM
  relative viability: 0.791
HOP-62; first compound 0.3162 µM
  relative viability: 0.616
HOP-62; first compound 1 µM
  relative viability: 0.583
LXF-289; first compound 0.01 µM
  relative viability: 0.49
LXF-289; first compound 0.03162 µM
  relative viability: 0.54
LXF-289; first compound 0.1 µM
  relative viability: 0.508
LXF-289; first compound 0.3162 µM
  relative viability: 0.445
LXF-289; first compound 1 µM
  relative viability: 0.526
NCI-H1666; first compound 0.01 µM
  relative viability: 0.549
NCI-H1666; first compound 0.03162 µM
  relative viability: 0.596
NCI-H1666; first compound 0.1 µM
  relative viability: 0.532
NCI-H1666; first compound 0.3162 µM
  relative viability: 0.554
NCI-H1666; first compound 1 µM
  relative viability: 0.467
NCI-H1755; first compound 0.01 µM
  relative viability: 0.636
NCI-H1755; first compound 0.03162 µM
  relative viability: 0.704
